The values that follow come from PubChem BioAssay (NCI).

What all share (assay): NCI-60 cell line screen, 48 h
In assay [1] the test system is NCI-H23 lung.
In assay [2] the test system is OVCAR-5 ovarian.
The subject of assay [3] is NCI-H522 lung.
Assay [4] relates to NCI/ADR-RES ovarian.
In assay [5] the test system is U251 CNS.
The subject of assay [6] is UACC-257 melanoma.
Assay [7] has as its system MOLT-4 leukemia.
Assay [8] has as its system ACHN renal.
For assay [9], the system named is HOP-92 NSCLC.
For assay [10], the system named is SK-OV-3 ovarian.
In assay [11] the test system is UO-31 renal.
In assay [12] the test system is K-562 leukemia.
In assay [13] the test system is MDA-MB-435.
Assay [14] concerns EKVX NSCLC.
Assay [15] concerns SF-539 CNS.
Assay [16] relates to HCC-2998 colon.

Molecules are shown by their SMILES.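 How tested: cells in 96-well plates exposed to compound for 48 hours at five concentrations. TGI: concentration producing complete growth inhibition.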

Regarding `O=C(O)CCNc1ncc2c(n1)-c1ccccc1OC2`, the TGI in [1], in [2], in assay [3], in assay [4], in assay [5] and in assay [6] was over 100 µM each time. For the same molecule, the TGI in assay [7], in assay [8], in assay [9], in assay [10], in assay [11] and in assay [12] was over 100 µM in each case. Also, the TGI in [13], in [14] and in assay [15] was over 100 µM in each case.

Consider `Cc1cc(O)c2c(c1)C(C1OC(CO)C(O)C(O)C1O)c1cc(O)cc(O)c1C2=O` (stereo unspecified), for which the TGI in assay [1], in [2], in assay [4], in assay [5], in [6] and in assay [7] was over 100 µM in each case. Moreover, the TGI in [8], in assay [9], in assay [10], in assay [11], in assay [12] and in assay [13] was over 100 µM in each case. The TGI in [16] and in assay [14] was over 100 µM throughout.

On to `O=C(NC1CCN(Cc2ccccc2)CC1)c1cccc(I)c1`, for which the TGI is 63.3 µM in assay [1]; over 100 µM in assay [2]; 32.9 µM in [3]; over 100 µM in assay [4]; 56.2 µM in [5]; 33.2 µM in assay [6]. Besides, the TGI in [7] is over 100 µM; in assay [8], over 100 µM; in assay [9], 62.7 µM; in assay [10] it was 42.8 µM; in [11], 31.6 µM; in [12] it was over 100 µM. For the same molecule, the TGI is 34.9 µM in [13], over 100 µM in assay [14] and 51.6 µM in assay [15].

With `COc1ccc(C2CC(c3ccc(NS(=O)(=O)c4cc([N+](=O)[O-])ccc4C)cc3)=NN2S(=O)(=O)c2cc([N+](=O)[O-])ccc2C)cc1` (stereo unspecified), the TGI is 78.7 µM in [1]; over 100 µM in assay [2]; 79.4 µM in assay [3]; over 100 µM in assay [4]; over 100 µM in [5]; over 100 µM in assay [6]. Moreover, the TGI in assay [7], in [8], in assay [9], in [10], in assay [11] and in [12] was over 100 µM each time. In addition, the figures for the TGI in [13], in assay [16] and in assay [14] were over 100 µM, 57.9 µM and over 100 µM, respectively.

`O=C(NC(=O)c1ccccc1)OC(c1ccccc1)C1CO1` (stereo unspecified): the TGI in assay [1], in assay [2], in assay [3], in assay [4], in assay [5] and in assay [6] was over 100 µM in each case. In addition, the TGI in assay [7], in assay [8], in assay [10], in assay [11], in assay [12] and in [13] was over 100 µM each time. In addition, the TGI in [16], in assay [14] and in [15] was over 100 µM throughout.

With `N#CC(c1ccccc1)N(CCc1ccccc1)C(=O)c1ccc(C(=O)N(CCc2ccccc2)C(C#N)c2ccccc2)cc1` (stereo unspecified), the TGI in [1] came to 77.6 µM; in assay [2] it was 78.7 µM; in assay [4], 47.3 µM; in assay [5], 64.6 µM; in [6], 35.3 µM; in assay [8], 73.5 µM. The TGI in [9] is 28.1 µM; in assay [10], over 100 µM; in assay [11], 63.8 µM; in assay [12], 67.4 µM; in assay [13], 58 µM; in assay [16] it was 29.1 µM. Further, the TGI in assay [14] was over 100 µM; in assay [15] it was 42.6 µM.

On to `CCCCC(O)(c1ccccc1)C(O)(c1ccccc1)c1c(F)c(F)c(F)c(F)c1F` (stereo unspecified), for which the TGI in [1] is over 100 µM; in [2] it was 41.1 µM; in [4] it was 49.1 µM; in [5] it was 32 µM; in [6] it was 49.1 µM; in assay [7] it was 45.6 µM. The TGI in assay [8] was 72.6 µM; in assay [9], 44.8 µM; in assay [10], over 100 µM; in assay [11], 88.4 µM; in assay [12], 82.4 µM; in [13], over 100 µM. Besides, the TGI in [16] was found to be 31 µM; in assay [14], 59.6 µM.

Turning to `CC1=NNC(=O)C1C1CC(c2c[nH]c3ccccc23)=NN(c2ccccc2)C1=O` (stereo unspecified), the TGI is over 100 µM in assay [1]; over 100 µM in assay [2]; 77.9 µM in [3]; over 100 µM in assay [4]; over 100 µM in assay [5]; over 100 µM in [6]. Moreover, the TGI in assay [7], in [8], in [9], in assay [10], in [11] and in assay [12] was over 100 µM throughout. Further, the TGI in assay [13], in [14] and in assay [15] was over 100 µM throughout.

As to `CC(C)(C)CNCCCNc1ccc(Cl)cc1`, the TGI was over 100 µM in assay [1]; over 100 µM in assay [2]; over 100 µM in assay [3]; over 100 µM in assay [4]; over 100 µM in assay [5]; 58.1 µM in assay [6]. The TGI is 25.6 µM in [7]; over 100 µM in assay [8]; 79.4 µM in [9]; over 100 µM in assay [10]; over 100 µM in assay [11]; 68.2 µM in assay [13]. Further, the TGI in assay [14] and in assay [15] was over 100 µM each time.
